Experimental data taken from US20250059156A1, “THERAPEUTIC ALKALOID COMPOUNDS” (Sensorium Therapeutics, Inc., priority 2022, published 2025).

Experiments:
SERT = SERT (Homo sapiens (Human), UniProt P31645); experiment: SERT inhibition assay (Neurotransmitter Transporter Fluorescence assay); type: cell-based; details: class symbols; legend in nM/micromolar
Experimental: SERT inhibition was measured using a Neruotransmitter Transportation Fluorescence assay. Briefly, stable 5HHH cells were prepared in a 384 microwell plate. Compounds were prepared by in assay buffer (20 mM HEPES, 0.1% BSA). The compounds were added to the plated cells and incubated for 30 minutes at 37° C. 25 μL of dye solution (Molecular Devices Neurotransmitter Transporter Uptake Assay Kit) was added per well and incubated for 30 minutes at 37° C. The plates were then read on a plate reader.

PDE4A1A = PDE4A1A (Homo sapiens (Human), UniProt P27815); experiment: PDE4 percent inhibition assay; type: biochemical; details: for inhibition at 10 µM: read-out: PDE4 Isoform % Inhibition @ 10 μM PDE4A1A
Experimental: (§1) PDE4 assay kit (BPS Bioscience, San Diego, CA), as described below.
(§2) • 1) Dilute 20 μM FAM-Cyclic-3′, 5′-AMP stock 100-fold with PDE buffer to make a 200 nM solution. Make only sufficient quantity needed for the assay; store remaining 20 μM stock solution in aliquots at −20° C. • 2) Add 25 μl of FAM-Cyclic-3′,5′-AMP (200 nM) to each well designated “Positive Control”, “Test Inhibitor”, and “Substrate Control”. • 3) Add 20 μl of PDE assay buffer to each well designated “Substrate Control” and 45 μl of PDE assay buffer to each well designated “Blank”. • 4) Add 5 μl of inhibitor solution to each well designated “Test Inhibitor”. For the wells labeled “Positive Control”, “Substrate Control” and “Blank”, add 5 μl of the same solution without inhibitor (inhibitor buffer). • 5) Thaw PDE on ice. Upon first thaw, briefly spin tube containing enzyme to recover the full contents of the tube. • 6) Dilute PDE4 in PDE buffer to 7.5 pg/μl (0.15 ng/reaction)*. Initiate reaction by adding 20 μl of PDE4 (7.5 pg/μl) to the wells designated “Positive Control” and “Test Inhibitor.” • 7) Incubate at room temperature for 1 hour.
(§3) • 1) Mix binding agent thoroughly and dilute binding agent 1:100 with binding agent diluent. • 2) Add 100 μl diluted binding agent to each microwell. Incubate at room temperature for 1 hour with slow shaking. • 3) Read the fluorescent polarization of the sample in a microtiter-plate reader equipped for the measurement of fluorescence polarization, capable of excitation at wavelengths ranging from 485±5 nm and detection of emitted light ranging from 528±10 nm. Blank value is subtracted from all other values.
(§4) 100 µM dilutions of the test compounds were prepared in assay buffer (10% DMSO concentration) and 5 μl of the dilution was added to a 50 μl reaction so that the final concentration of DMSO is 1% in all of reactions.
(§5) The enzymatic reactions were conducted at room temperature for 60 minutes in a 50 μl mixture containing PDE assay buffer, 100 nM FAM-cAMP, a PDE enzyme and the test compound.
(§6) After the enzymatic reaction, 100 Is of a binding solution (1:100 dilution of the binding agent with the binding agent diluent) was added to each reaction and the reaction was performed at room temperature for 60 minutes.
(§7) Fluorescence intensity was measured at an excitation of 485 nm and an emission of 528 nm using a Tecan Infinite M1000 microplate reader.

PDE4B2 = PDE4B2 (Homo sapiens (Human), UniProt Q07343); experiment: PDE4 percent inhibition assay; type: biochemical; details: for inhibition at 10 µM: read-out: PDE4 Isoform % Inhibition @ 10 μM PDE4B2
Experimental: as §1, §2, §3, §4, §5, §6, §7

PDE4C1 = PDE4C1 (Homo sapiens (Human), UniProt Q08493); experiment: PDE4 percent inhibition assay; type: biochemical; details: for inhibition at 10 µM: read-out: PDE4 Isoform % Inhibition @ 10 μM PDE4C1
Experimental: as §1, §2, §3, §4, §5, §6, §7

PDE4D2 = PDE4D2 (Homo sapiens (Human), UniProt Q08499); experiment: PDE4 percent inhibition assay; type: biochemical; details: for inhibition at 10 µM: read-out: PDE4 Isoform % Inhibition @ 10 μM PDE4D2
Experimental: as §1, §2, §3, §4, §5, §6, §7

PDE4B2, sequence (Q07343 other isoform, or with tags, fused parts or gaps): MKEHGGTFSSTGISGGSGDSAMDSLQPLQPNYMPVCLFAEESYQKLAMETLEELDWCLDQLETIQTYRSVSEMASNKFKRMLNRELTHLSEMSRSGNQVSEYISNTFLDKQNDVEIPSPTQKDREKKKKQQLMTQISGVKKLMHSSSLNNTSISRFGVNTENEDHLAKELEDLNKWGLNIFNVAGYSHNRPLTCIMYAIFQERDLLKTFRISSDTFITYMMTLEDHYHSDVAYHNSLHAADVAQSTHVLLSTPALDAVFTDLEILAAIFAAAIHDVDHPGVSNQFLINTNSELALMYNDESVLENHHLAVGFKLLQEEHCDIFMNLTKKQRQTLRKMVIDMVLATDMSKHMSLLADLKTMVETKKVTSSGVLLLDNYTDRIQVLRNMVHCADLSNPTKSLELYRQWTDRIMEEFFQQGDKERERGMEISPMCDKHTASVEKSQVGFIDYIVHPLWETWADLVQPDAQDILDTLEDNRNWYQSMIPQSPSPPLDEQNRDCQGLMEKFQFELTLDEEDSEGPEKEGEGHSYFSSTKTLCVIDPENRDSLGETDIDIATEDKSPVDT
PDE4D2, sequence (Q08499 303-809, change not shown): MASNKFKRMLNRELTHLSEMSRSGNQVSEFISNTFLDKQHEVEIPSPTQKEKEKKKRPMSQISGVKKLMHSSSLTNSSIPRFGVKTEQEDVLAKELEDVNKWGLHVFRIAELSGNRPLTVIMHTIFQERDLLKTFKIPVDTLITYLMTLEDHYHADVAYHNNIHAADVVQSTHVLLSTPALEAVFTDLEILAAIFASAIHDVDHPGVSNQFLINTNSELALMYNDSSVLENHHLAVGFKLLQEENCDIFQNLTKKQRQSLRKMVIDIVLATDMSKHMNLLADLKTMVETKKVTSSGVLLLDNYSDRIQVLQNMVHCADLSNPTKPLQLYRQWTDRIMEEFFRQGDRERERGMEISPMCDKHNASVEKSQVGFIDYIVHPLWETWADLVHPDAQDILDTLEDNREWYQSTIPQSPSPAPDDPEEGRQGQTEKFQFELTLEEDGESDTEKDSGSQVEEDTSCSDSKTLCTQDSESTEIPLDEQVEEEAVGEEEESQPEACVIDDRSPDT
PDE4C1, sequence (Q08493 whole entry, canonical isoform): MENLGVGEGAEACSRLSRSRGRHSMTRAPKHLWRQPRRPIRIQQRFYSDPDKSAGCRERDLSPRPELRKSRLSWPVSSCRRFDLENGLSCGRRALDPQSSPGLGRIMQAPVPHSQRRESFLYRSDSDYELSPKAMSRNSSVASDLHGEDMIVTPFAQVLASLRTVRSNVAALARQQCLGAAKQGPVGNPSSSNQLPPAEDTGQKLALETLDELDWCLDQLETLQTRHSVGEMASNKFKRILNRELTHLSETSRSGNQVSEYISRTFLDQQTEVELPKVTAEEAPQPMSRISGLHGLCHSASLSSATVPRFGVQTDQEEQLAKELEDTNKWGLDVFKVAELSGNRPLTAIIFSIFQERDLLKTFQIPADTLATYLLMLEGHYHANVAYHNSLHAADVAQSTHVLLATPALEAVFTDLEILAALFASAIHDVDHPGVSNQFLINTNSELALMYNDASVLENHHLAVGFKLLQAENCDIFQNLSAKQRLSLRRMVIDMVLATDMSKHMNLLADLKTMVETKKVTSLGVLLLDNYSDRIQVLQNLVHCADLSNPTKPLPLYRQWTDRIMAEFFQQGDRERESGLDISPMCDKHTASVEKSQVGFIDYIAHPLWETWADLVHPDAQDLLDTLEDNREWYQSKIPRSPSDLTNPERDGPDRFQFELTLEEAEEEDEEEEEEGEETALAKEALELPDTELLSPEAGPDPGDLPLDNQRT
SERT, sequence (P31645 whole entry, species assumed): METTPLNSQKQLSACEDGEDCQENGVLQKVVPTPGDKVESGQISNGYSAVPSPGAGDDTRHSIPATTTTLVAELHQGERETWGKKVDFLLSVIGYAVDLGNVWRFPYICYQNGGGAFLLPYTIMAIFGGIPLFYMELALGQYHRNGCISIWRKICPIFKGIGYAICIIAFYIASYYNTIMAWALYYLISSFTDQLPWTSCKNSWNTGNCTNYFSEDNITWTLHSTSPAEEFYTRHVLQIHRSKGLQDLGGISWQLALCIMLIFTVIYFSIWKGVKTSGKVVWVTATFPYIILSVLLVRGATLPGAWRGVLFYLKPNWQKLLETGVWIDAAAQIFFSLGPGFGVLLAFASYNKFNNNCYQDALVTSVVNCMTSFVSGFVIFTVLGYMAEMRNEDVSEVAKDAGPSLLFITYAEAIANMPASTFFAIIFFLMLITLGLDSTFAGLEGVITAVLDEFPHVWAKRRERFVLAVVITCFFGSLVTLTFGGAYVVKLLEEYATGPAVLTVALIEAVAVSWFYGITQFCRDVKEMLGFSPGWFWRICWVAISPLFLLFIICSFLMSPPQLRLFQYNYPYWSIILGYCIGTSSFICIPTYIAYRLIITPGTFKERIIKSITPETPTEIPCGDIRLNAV
PDE4A1A, sequence (P27815 other isoform, or with tags, fused parts or gaps): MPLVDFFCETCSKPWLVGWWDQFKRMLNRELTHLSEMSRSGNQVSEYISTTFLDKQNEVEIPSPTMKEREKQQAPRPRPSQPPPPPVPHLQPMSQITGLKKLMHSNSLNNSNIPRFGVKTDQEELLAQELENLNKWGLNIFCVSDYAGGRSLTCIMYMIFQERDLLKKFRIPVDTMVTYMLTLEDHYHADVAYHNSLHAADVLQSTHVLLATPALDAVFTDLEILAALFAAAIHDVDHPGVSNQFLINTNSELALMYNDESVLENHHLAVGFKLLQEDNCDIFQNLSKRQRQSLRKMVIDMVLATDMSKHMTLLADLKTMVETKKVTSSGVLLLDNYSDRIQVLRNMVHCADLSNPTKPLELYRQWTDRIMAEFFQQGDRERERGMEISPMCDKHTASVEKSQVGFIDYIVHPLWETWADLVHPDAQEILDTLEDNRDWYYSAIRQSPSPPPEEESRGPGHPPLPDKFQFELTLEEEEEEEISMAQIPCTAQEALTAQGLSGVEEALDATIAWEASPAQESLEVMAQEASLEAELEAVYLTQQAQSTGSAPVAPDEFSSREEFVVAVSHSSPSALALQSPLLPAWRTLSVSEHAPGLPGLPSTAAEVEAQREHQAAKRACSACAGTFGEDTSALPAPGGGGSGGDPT

COc1ccc([C@]23CCC(=O)C[C@H]2N(C(C)C)CC3)cc1OC [Compound 227]
IC50 (SERT): 500 to 1000 nM

COc1ccc([C@]23CCN(C)[C@H]2[C@@H]2CCC[C@H]3CC2=O)cc1OC [Compound 218]
IC50 (SERT): < 50 nM
PDE4 Isoform % Inhibition @ 10 μM PDE4A1A (PDE4A1A): D (D if the percent inhibition is less than 30%)
PDE4 Isoform % Inhibition @ 10 μM PDE4B2 (PDE4B2): D (D if the percent inhibition is less than 30%)
PDE4 Isoform % Inhibition @ 10 μM PDE4C1 (PDE4C1): D (D if the percent inhibition is less than 30%)
PDE4 Isoform % Inhibition @ 10 μM PDE4D2 (PDE4D2): D (D if the percent inhibition is less than 30%)

CCN1CC[C@]2(c3ccc(OC)c(OC)c3)CCC(=O)C[C@H]12 [Compound 223]
IC50 (SERT): > 1000 nM

COc1ccc([C@@]23CCN(C)[C@@H]2[C@@H]2C[C@H]3CC2=O)cc1OC [Compound 216]
IC50 (SERT): 50 to 100 nM
PDE4 Isoform % Inhibition @ 10 μM PDE4A1A (PDE4A1A): D (D if the percent inhibition is less than 30%)
PDE4 Isoform % Inhibition @ 10 μM PDE4B2 (PDE4B2): D (D if the percent inhibition is less than 30%)
PDE4 Isoform % Inhibition @ 10 μM PDE4C1 (PDE4C1): C (C is the percent inhibition is 30-50%)
PDE4 Isoform % Inhibition @ 10 μM PDE4D2 (PDE4D2): D (D if the percent inhibition is less than 30%)

COc1ccc([C@]23CCN(C)[C@H]2CC2(CCCO2)CC3)cc1OC (stereo partly shown) [Compound 117, (3a'S,7a'S)-3a′-(3,4-dimethoxyphenyl)-1′-methyldecahydro-3H-spiro[furan-2,6′-indole]]
IC50 (SERT): < 50 nM
inhibition at 10 µM (PDE4A1A): 30 to 50%
inhibition at 10 µM (PDE4B2): 30 to 50%
inhibition at 10 µM (PDE4C1): < 30%
inhibition at 10 µM (PDE4D2): 30 to 50%

COc1ccc([C@]23CCN(C)[C@H]2[C@H]2C[C@@H]3CC2=O)cc1OC [Compound 215]
IC50 (SERT): 50 to 100 nM
PDE4 Isoform % Inhibition @ 10 μM PDE4A1A (PDE4A1A): D (D if the percent inhibition is less than 30%)
PDE4 Isoform % Inhibition @ 10 μM PDE4B2 (PDE4B2): D (D if the percent inhibition is less than 30%)
PDE4 Isoform % Inhibition @ 10 μM PDE4C1 (PDE4C1): D (D if the percent inhibition is less than 30%)
PDE4 Isoform % Inhibition @ 10 μM PDE4D2 (PDE4D2): D (D if the percent inhibition is less than 30%)

COc1ccc([C@]23CCN(C)[C@H]2[C@@H]2C[C@H]3CC2=O)cc1OC [Compound 213]
IC50 (SERT): > 1000 nM
PDE4 Isoform % Inhibition @ 10 μM PDE4A1A (PDE4A1A): A (A if the % inhibition is greater than or equal to 70%)
PDE4 Isoform % Inhibition @ 10 μM PDE4B2 (PDE4B2): A (A if the % inhibition is greater than or equal to 70%)
PDE4 Isoform % Inhibition @ 10 μM PDE4C1 (PDE4C1): A (A if the % inhibition is greater than or equal to 70%)
PDE4 Isoform % Inhibition @ 10 μM PDE4D2 (PDE4D2): A (A if the % inhibition is greater than or equal to 70%)

COc1ccc([C@@]23CCC(=O)C[C@@H]2N(C(C)C)CC3)cc1OC [Compound 226]
IC50 (SERT): 500 to 1000 nM

COc1ccc([C@@]23CC[C@H](n4ccc(C(F)(F)F)n4)C[C@@H]2N(C)CC3)cc1OC [Compound 101, (3aS,6S,7aS)-3a-(3,4-dimethoxyphenyl)-1-methyl-6-(3-(trifluoromethyl)-1H-pyrazol-1-yl)octahydro-1H-indole]
inhibition at 10 µM (PDE4A1A): < 30%
inhibition at 10 µM (PDE4B2): < 30%
inhibition at 10 µM (PDE4C1): < 30%
inhibition at 10 µM (PDE4D2): < 30%

COc1ccc([C@@]23CC[C@H](N4CCCCC4)C[C@@H]2N(C)CC3)cc1OC [Compound 107, (3aS,6S,7aS)-3a-(3,4-dimethoxyphenyl)-1-methyl-6-(piperidin-1-yl)octahydro-1H-indole]
IC50 (SERT): > 1000 nM
inhibition at 10 µM (PDE4A1A): < 30%
inhibition at 10 µM (PDE4B2): < 30%
inhibition at 10 µM (PDE4C1): < 30%
inhibition at 10 µM (PDE4D2): < 30%

COc1ccc([C@@]23CC[C@H](n4cccn4)C[C@@H]2N(C)CC3)cc1OC [Compound 102, (3aS,6S,7aS)-3a-(3,4-dimethoxyphenyl)-1-methyl-6-(1H-pyrazol-1-yl)octahydro-1H-indole]
IC50 (SERT): < 50 nM
inhibition at 10 µM (PDE4A1A): < 30%
inhibition at 10 µM (PDE4B2): < 30%
inhibition at 10 µM (PDE4C1): < 30%
inhibition at 10 µM (PDE4D2): < 30%

CCN1CC[C@@]2(c3ccc(OC)c(OC)c3)CCC(=O)C[C@@H]12 [Compound 224]
IC50 (SERT): < 50 nM
